In series [1] the test system is HCV genotype 1b Con1 strain subgenomic luciferase replicon (Zluc). The series is described as follows: Luciferase replicon assay, genotype 1b. The series is classed as cell-based. Particulars: Hepatitis C virus. How it is done: (§1) The HCV luciferase replicon assay measures the ability of a test compound to inhibit HCV replication in cell culture after 3 days of treatment in a human hepatoma cell line (Huh-7) bearing an HCV replicon containing a luciferase-neomycin phosphotransferase fusion gene. The inhibition of HCV replication was measured by quantification of luciferase protein expression. Briefly, Huh-7 cells containing either the HCV genotype 1a H77 strain or genotype 1b Con1 strain subgenomic luciferase replicon (H1a-luc or Zluc, respectively) were grown in DMEM containing glucose, L-glutamine and sodium pyruvate, 10% fetal bovine serum (FBS), 100 IU/mL penicillin, 100 μg/mL streptomycin, 2 mM GlutaMAX, non-essential amino acids and 0.25 (H1a-luc) or 0.5 (Zluc) mg/mL G418. GlutaMAX was obtained from Invitrogen, Corp.; all other media reagents were obtained from Mediatech, Inc. For dose-response testing, the cells were seeded in 96-well plates at 1×10^4 (H1a-luc) or 7.5×10^3 (Zluc) cells/well in a volume of 50 μL, and incubated at 37° C./5% CO2. Three hours after plating, 50 μL of ten 5-fold serial dilutions of compound were added, and cell cultures were incubated at 37° C./5% CO2 for 72 hours. In all cases, Huh-7 cells lacking the HCV replicon served as negative control. To assess luciferase expression, the media/compound was removed from the plates and ONE-glo Luciferase assay reagent (Promega) was added to each well. The assay plates were shaken for 3 minutes at room temperature and luciferase activity for each well was measured with a 1 sec read time on the Victor^3V multilabel counter using a 700 nm cut-off filter (Perkin Elmer). EC50 values were calculated from dose response curves from the resulting best-fit equations determined by Microsoft Excel and XLfit 4.1 software.

Another series has as its system HCV genotype 2a. Kind of series: Genotype 2a assay (NS5A-intergenotypic luciferase replicon / genotype 2a infectious virus assay). The series is classed as cell-based. Particulars: Hepatitis C virus, read-out: EC50 2a. The text has this: (§2) The nucleotide sequences of the NS5A region of genotype 2a (GenBank Accession # AB047639), genotype 3a (GenBank Accession #D17763), and genotype 4a (GenBank Accession# DQ418788) were synthesized by an outside vendor. The NS5A region of each of these genotypes included the first 11 amino acids of the protease recognition sequence of genotype 1b, as well as the last 10 amino acids of genotype 1b. The NS5A gene cassettes were excised with site specific restriction endonucleases and ligated into a ZS11-luciferase genotype 1b backbone (backbone contains the genotype 1b NS3 protease, NS4a, NS4b, and NS5b coding regions) with similarly cut restriction enzyme sites. Thus, the newly constructed plasmid contains a genotype 2a-, 3a- or 4a-specific NS5A gene within the 1b-replicon.
(§3) These new intergenotypic plasmids were used to establish stable cell lines. RNA was generated from the NS5A intergenotypic plasmids and used in conjunction with a lipofectin reagent to transfect a cured Huh7 cell line. Transfected cells were selected for with G418. After selection has occurred the stable cell lines were propagated, tested for luciferase activity, and RT-PCR with genotype specific primers (either 1a, 2a, 3a, or 4a). Stable cell lines containing the intergenotypic replicon were then fully sequenced and analyzed for proper expression of NS3, NS5A and NS5B proteins.
(§4) Drug titration analysis was performed using the luciferase replicon assay described herein.
The genotype 2a infectious virus assay measures the ability of a test compound to inhibit HCV replication in cell culture after 5 days of treatment at the time of HCV genotype 2a virus infection of a permissive human hepatoma cell line (HPC cells). The inhibition of HCV replication was measured by quantification of HCV core protein expression by an enzyme-linked immunosorbent assay (ELISA). Briefly, HPC cells were grown in DMEM containing glucose, L-glutamine and sodium pyruvate, 10% FBS, 100 IU/mL penicillin, 100 μg/mL streptomycin, 2 mM GlutaMAX, and non-essential amino acids. GlutaMAX was obtained from Invitrogen, Corp.; all other media reagents were obtained from Mediatech, Inc. For dose-response testing, ninety-six-well plates were seeded with HPC cells at a density of 2.5×10^3 cells/well in a volume of 50 μL, and incubated at 37° C./5% CO2. Three hours after plating, 50 μL of ten 5-fold serial dilutions of compound and 100 μL of genotype 2a virus were added, and cell cultures were incubated at 37° C./5% CO2. In all cases, mock infected HPC cells served as negative control. At 16 hours post treatment and infection, the virus inoculum was removed by aspiration. The cultures were treated at the same final concentrations of drug diluted in media and incubated for 4 additional days at 37° C./5% CO2. Subsequently, the core ELISA was performed as follows. The plates were fixed for 90 seconds with acetone/methanol (1:1, v/v), washed three times with KPL wash solution (KPL, Inc.), blocked for 1 hr at room temperature with TNE buffer containing 10% FBS and then incubated for 2 hr at 37° C. with the anti-HCV core mouse monoclonal antibody (Thermo Scientific) diluted in the same buffer. After washing three times with KPL wash solution, the cells were incubated for 1 hr at 37° C. with an anti-mouse immunoglobulin G-peroxidase conjugate in TNE/10% FBS. After washing as described above, the reaction was developed with O-phenylenediamine (Invitrogen). The reaction was stopped after 30 min with 2 NH2SO4, and absorbance was read at 490 nm in a Victor^3V 1420 multilabel counter (Perkin Elmer) and EC50 concentrations were determined using Microsoft Excel and XLfit 4.1 software.
The HCV luciferase replicon assay measures the ability of a test compound to inhibit HCV replication in cell culture after 3 days of treatment in a human hepatoma cell line (Huh-7) bearing an HCV replicon containing a luciferase-neomycin phosphotransferase fusion gene. […]
For orientation: Replicon systems follow genome replication, usually without infectious particles.

For series [2], the system named is HCV genotype 3a NS5A within the 1b-replicon. The series is described as follows: Luciferase replicon assay, NS5A-intergenotypic stable cell line genotype 3a. Particulars: Hepatitis C virus, read-out: EC50 3a. In kind it is cell-based.
From the text: as §2, §3, §4, §1

For series [3], the system named is HCV genotype 4a NS5A within the 1b-replicon. The series is described as follows: Luciferase replicon assay, NS5A-intergenotypic stable cell line genotype 4a. Particulars: Hepatitis C virus, read-out: EC50 4a. The series is classed as cell-based.
From the text: as §2, §3, §4, §1

Series [4] concerns HCV genotype 1a H77 strain subgenomic luciferase replicon (H1a-luc). Kind of series: Luciferase replicon assay, genotype 1a. The series is classed as cell-based. Particulars: Hepatitis C virus, read-out: EC50 1a. How it is done:
as §4, §1

The subject of a further series is H1a-luc or Zluc cells. Kind of series: in vitro. Particulars: Table 1B, cellular viability. The series is classed as cell-based, human. As to the method: For cytotoxicity evaluation, HPC cells were treated with compounds as described above in the absence of the genotype 2a virus and cellular viability was monitored using the Cell Titer 96 AQueous One Solution Cell Proliferation Assay (Promega). Plates were then read at 490 nm in a Victor^3V 1420 multilabel counter (Perkin Elmer) and CC50 concentrations were determined using Microsoft Excel and XLfit 4.1 software.
For cytotoxicity evaluation, H1a-luc or Zluc cells were treated with compounds as described above and cellular viability was monitored using the Cell Titer 96 AQueous One Solution Cell Proliferation Assay (Promega). Plates were then read at 490 nm in a Victor^3V 1420 multilabel counter (Perkin Elmer) and CC50 concentrations were determined using Microsoft Excel and XLfit 4.1 software.

In series [5] the test system is 1a-luc WT (HCV genotype 1a replicon). Kind of series: Luciferase replicon transient transfection assay, 1a-luc WT. The series is classed as cell-based. Particulars: Hepatitis C virus, 96 h, Huh7.5 cells, 4 days. As to the method: (§5) The luciferase replicon transient transfection assay measures the ability of a test compound to inhibit the replication of a transiently-transfected HCV luciferase-bearing wild-type or mutant replicon in cured human hepatoma cells (Huh7.5). The inhibition of HCV replication was measured by quantification of luciferase protein expression. This assay has been validated using a panel of genotype 1a and 1b replicons bearing mutations known to be associated with resistance to BMS-790052. Briefly, subconfluent Huh7.5 cells were electroporated with 10 μg of wild-type or mutant luciferase-bearing HCV replicon RNA. The cells were then seeded in 96-well opaque white plates at 3×10^4 cells/well in 150 μL/well and incubated for 4 hrs at 37° C./5% CO2. Ten 1:5 serial dilutions of each test compound were made in media (DMEM containing glucose, L-glutamine and sodium pyruvate, 10% fetal bovine serum, 100 IU/mL penicillin, 100 μg/mL streptomycin, 2 mM GlutaMAX, and 1×MEM non-essential amino acids (Mediatech, Inc. and Invitrogen Corp.)) at concentrations that were 4× higher than the final concentrations to be tested and 50 μL/well was added to the transfected cells. Untreated, mock-transfected cells served as a negative control of luciferase expression. The plates were incubated at 37° C./5% CO2 for 4 days whereupon the media was removed and 50 μL of ONE-glo luciferase substrate (Promega) was added to each well. The plates were agitated on a rotating platform at room temperature for 3 min and read in a Victor^3V microplate reader (Perkin-Elmer) using a 700 nm cut-off filter with a 1 sec read time. EC50 values were calculated from dose response curves from the resulting best-fit equations determined by Microsoft Excel and XLfit 4.1 software.

The test system of series [6] is 1a-luc Q30E (HCV genotype 1a replicon). The series is described as follows: Luciferase replicon transient transfection assay, 1a-luc Q30E. Particulars: for pEC50: Hepatitis C virus, 96 h, Huh7.5 cells, 4 days. The series is classed as cell-based, hepatitis C virus. As to the method:
as §5

Series [7] concerns 1a-luc L31V (HCV genotype 1a replicon). The series is described as follows: Luciferase replicon transient transfection assay, 1a-luc L31V. The series is classed as cell-based, hepatitis C virus. Particulars: for pEC50: Hepatitis C virus, 96 h, Huh7.5 cells, 4 days. As to the method: as §5
The test system of series [8] is 1a-luc Y93H (HCV genotype 1a replicon). Kind of series: Luciferase replicon transient transfection assay, 1a-luc Y93H. The series is classed as cell-based, hepatitis C virus. Particulars: for pEC50: Hepatitis C virus, 96 h, Huh7.5 cells, 4 days. How it is done:
as §5

The test system of series [9] is ZS11-luc WT (HCV genotype 1b replicon). The series is described as follows: Luciferase replicon transient transfection assay, ZS11-luc WT. The series is classed as cell-based, hepatitis C virus. Particulars: Hepatitis C virus, Huh7.5, 96 h, genotype 1b, ZS11-luc WT, Huh7.5 cells, 4 days. How it is done:
as §5

In series [10] the test system is ZS11-luc L31V (HCV genotype 1b replicon). Kind of series: Luciferase replicon transient transfection assay, ZS11-luc L31V. The series is classed as cell-based, hepatitis C virus. Particulars: for pEC50: Hepatitis C virus, 96 h, Huh7.5 cells, 4 days. How it is done:
as §5

The test system of series [11] is ZS11-luc Y93H (HCV genotype 1b replicon). Kind of series: Luciferase replicon transient transfection assay, ZS11-luc Y93H. In kind it is cell-based, hepatitis C virus. Particulars: for pEC50: Hepatitis C virus, 96 h, Huh7.5 cells, 4 days. As to the method: as §5

pEC50: −log10 of the molar value.

In general, pEC50 refers to −log10 of the EC50, conventionally taken in molar units. What is called CC50 is the concentration that lowers cell viability or growth by half. The low end stands for greater toxicity to the cells, the high end for lower toxicity to the cells.

`COC(=O)N[C@H](C(=O)N1CCC[C@H]1c1ncc(-c2csc3c(-c4ccc5[nH]c([C@@H]6CCCN6C(=O)[C@@H](NC(=O)OC)C(C)C)nc5c4)csc23)[nH]1)C(C)C` [Compound A173, ((S)-1-{(S)-2-[6-(6-{(S)-2-[1-((S)-2-methoxycarbonylamino-3-methyl-butyryl)-pyrrolidin-2-yl]-1H-imidazol-4-yl}-thieno[3,2-b]thiophen-3-yl)-1H-benzoimidazol-2-yl]-pyrrolidine-1-carbonyl}-2-methyl-propyl)-carbamic acid methyl ester]: the pEC50 in series [1] is above 10.00; in the series with HCV genotype 2a it was 8.00 to 9.00; in [2], 8.00 to 9.00; in [3], 8.00 to 9.00; in [4], 7.00 to 8.00. The 50% cytotoxic concentration (CC50) in the series with H1a-luc or Zluc cells was in the range of 10000 to 75000 nM.

On to `COC(=O)N[C@H](C(=O)N1CCC[C@H]1c1ncc(-c2ccc(-c3cc4sc(-c5ccc(-c6c[nH]c(C7CCCN7C(=O)[C@H](NC(=O)OC)c7ccccc7)n6)cc5)cc4s3)cc2)[nH]1)C(C)C` (stereo partly drawn) [Compound A192], for which the negative-log EC50 (pEC50) in series [5] is 10.70; in series [6] it was 8.05; in series [7], 7.96; in series [8] it was 7.10; in series [9], 11.52; in series [10], 10.30. The molecule further showed a pEC50 in series [11] of 9.40. For the same molecule, the Ratio in series [6] came out at 597; in series [7] it was 678; in series [8], 5072; in series [10] it was 20; in [11] it was 138.

With `COC(=O)N[C@H](C(=O)N1CCCC1c1ncc(-c2csc3c(-c4ccc(-c5cnc(C6CCCN6C(=O)C(c6ccccc6)N6CCCCC6)[nH]5)cc4)csc23)[nH]1)C(C)C` (stereo partly drawn) [Compound A219], the pEC50 in [5] is 10.40; in series [6], 9.00; in series [7], 7.74; in series [8] it was 6.68; in series [9] it was 11.00; in [10] it was 10.30. In addition, in [11], the pEC50 was 9.22. The Ratio in [6] is 25; in series [7], 442; in [8], 4841; in series [10], 4; in [11], 49.

The values are drawn from US20120252721A1 (priority 2011, published 2012).
